One block for each compound: values may come before it.
What was measured:
[1] = target: T1, DYRK1A (Homo sapiens, UniProt Q13627); assay: DYRK1A activity in harmine-treated organoids; type: cell-based
T1 construct: endogenous in cells; host or cells: CDKL5-deficient organoids
Source text: DYRK1A is a kinase that adds phosphate groups to proteins, thereby regulating their function. In CDKL5 deficiency, the lack of CDKL5-mediated regulation leads to overactivation of DYRK1A, resulting in dysregulated synaptic signaling and impaired neuronal communication. Harmine, by selectively inhibiting DYRK1A, restores the phosphorylation balance at the synapse, preventing over-phosphorylation of critical synaptic proteins. This modulation of synaptic signaling pathways by harmine contributes to the restoration of neuronal connectivity and the normalization of network activity in the treated organoids.

[2] = tested on: CDKL5 knockout mice; assay: In vivo studies in CDKL5 knockout mice: synaptic transmission and neuronal connectivity
Method: This dosing regimen may serve as a reference point for establishing human doses. Extrapolating from these animal models, an initial dosing range for children of 1 to 2 mg/kg per day. This range can be adjusted depending on the individual's size and response, with a narrower range of 1.5 to 2 mg/kg per day for more precise dosing or even tighter to 1.75 to 2 mg/kg per day in specific cases. For broader clinical flexibility, a starting range of 0.5 to 3 mg/kg per day might be considered for pediatric populations, with adjustments based on individual tolerance and therapeutic outcomes.
In in vivo studies, animal models of neurodevelopmental disorders, including CDKL5 knockout mice, have been treated with liquiritin to assess its impact on synaptic transmission and neuronal connectivity.

[3] = tested on: proinflammatory cytokines and chemokines; assay: Production and release of proinflammatory cytokines and chemokines
[4] = tested on: GABA receptor; settings: in vitro; cited from earlier work
[5] = tested on: microglial cells; assay: Microglial activity
Source text: This activation is associated with the release of proinflammatory cytokines, which promote neuroinflammatory processes.

[6] = tested on: CDKL5-deficient organoids; assay: Network activity of organoids derived from patient iPSCs; type: cell-based, human; settings: CDKL5-deficient organoids treated with harmine
Method: Another set of experiments was conducted using organoids derived from patient-induced pluripotent stem cells (iPSCs). Organoids are three-dimensional structures created from stem cells that closely resemble specific organs or tissues in terms of cellular composition, architecture, and function. These structures are widely used in biomedical research because they replicate the complexity of real organs, including their multiple cell types, tissue-specific structures, and the functions of the organ being modeled. In this study, organoids were generated to mimic the neuronal network of patients with CDKL5 deficiency disorder (CDD), providing a model system to explore the underlying mechanisms of the disorder and test potential therapeutic approaches.
Increased network excitability refers to an overactive state where neurons fire excessively, a characteristic associated with the seizure activity observed in CDD patients. Altered synchrony in the neuronal network reflects disrupted communication between neurons, contributing to cognitive impairments.

[7] = tested on: seizures in animal models; settings: cited from earlier work
[8] = tested on: oxidative damage of neurons; settings: cited from earlier work
[9] = tested on: EB2 phosphorylation; assay: EB2 phosphorylation in CDKL5 knockout (KO) mouse model; type: in vivo; settings: knockout (KO) male and Het female mice; compared with vehicle (drinking water)
Method: In this context, EB2 phosphorylation acts as a functional molecular readout for the disease-modifying potential of small molecules, such as monoamine oxidase inhibitors (MAO-Is). When studying the efficacy of potential therapies for CDD, the measurement of EB2 phosphorylation levels can provide insight into whether the treatment is capable of compensating for the dysfunctional CDKL5 protein.
To evaluate the impact of MAO-Is on EB2 phosphorylation, an in vivo study was conducted using a well-established CDKL5 knockout (KO) mouse model, specifically the B6.129(FVB)-Cdk15tm1.1Joez/J strain from Jackson Laboratories. […] These mice provide a relevant model for testing how pharmacological agents such as MAO-Is can modulate neuronal activity and potentially restore normal function in the absence of CDKL5.
The increase in EB2 phosphorylation in these models provides compelling evidence that MAO-Is offer a disease-modifying therapeutic approach for patients with CDKL5 deficiency disorder, by targeting key molecular pathways involved in synaptic transmission and brain development.

[10] = target: T2, MAO-B (Homo sapiens, UniProt P27338); assay: MAO-B inhibitory activity; type: biochemical
T2 sequence (P27338 1-520): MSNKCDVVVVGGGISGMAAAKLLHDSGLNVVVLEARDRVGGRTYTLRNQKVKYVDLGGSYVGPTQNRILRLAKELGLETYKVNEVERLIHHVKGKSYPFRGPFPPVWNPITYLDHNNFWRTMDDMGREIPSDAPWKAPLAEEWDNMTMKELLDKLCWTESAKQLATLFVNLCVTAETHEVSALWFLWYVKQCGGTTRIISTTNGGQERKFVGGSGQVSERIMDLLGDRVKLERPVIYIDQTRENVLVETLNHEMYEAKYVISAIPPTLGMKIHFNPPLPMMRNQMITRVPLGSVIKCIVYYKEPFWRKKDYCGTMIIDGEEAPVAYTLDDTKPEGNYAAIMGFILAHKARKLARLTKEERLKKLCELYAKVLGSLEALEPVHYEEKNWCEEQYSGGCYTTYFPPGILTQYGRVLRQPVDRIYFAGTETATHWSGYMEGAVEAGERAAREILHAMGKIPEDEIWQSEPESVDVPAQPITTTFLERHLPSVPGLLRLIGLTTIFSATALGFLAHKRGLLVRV
Source text: Though its MAO-B inhibitory activity is not as potent as that of other compounds such as safinamide, its ability to mildly modulate neurotransmitter levels, particularly dopamine and serotonin, may be beneficial in improving synaptic communication in CDD. In addition to its interaction with the monoamine pathways, liquiritin's anti-inflammatory properties may aid in reducing the neuroinflammation often observed in CDKL5-deficient patients. By targeting both neurotransmitter regulation and inflammatory processes, liquiritin offers a dual mechanism that may be effective in restoring synaptic balance.

Structure (SMILES): COc1ccc2c(c1)[nH]c1c(C)nccc12 [harmine]
DYRK1A activity [1]: modulation of DYRK1A activity
efficacy of the dosing regimen ([2]; 30 mg/kg intraperitoneally, 5 days on, 2 days off, another 5-day cycle): has shown efficacy
neurological outcomes ([2]; CDKL5 knockout mice): improved neurological outcomes
synaptic transmission and neuronal connectivity ([2]; CDKL5 knockout mice): significant improvements in synaptic transmission and neuronal connectivity
production and release of proinflammatory cytokines and chemokines [3]: inhibits the production and release of proinflammatory cytokines and chemokines
GABA receptor activity [4]: increases GABA receptor activity
microglial activity (overactivation) [5]: reducing their overactivation
burst firing patterns [6]: normalized the burst firing patterns
network excitability [6]: reduced network excitability
neuronal synchrony [6]: improved neuronal synchrony

Structure (SMILES): C[C@H](NCc1ccc(OCc2cccc(F)c2)cc1)C(N)=O [safinamide]
anticonvulsant properties [7]: suppress seizures and provide neuroprotective effects

MAO-B inhibitory activity [10]: weak MAO-B inhibitor
Structure (SMILES): O=C1C[C@@H](c2ccc(O[C@@H]3O[C@H](CO)[C@@H](O)[C@H](O)[C@H]3O)cc2)Oc2cc(O)ccc21 [liquiritin]
antioxidant activity [8]: demonstrated antioxidant activity
synaptic function ([2]; animal models including CDKL5 knockout mice): moderate improvements in synaptic function
EB2 phosphorylation levels [9]: effective in increasing EB2 phosphorylation levels

From patent publication US20250127766A1, “METHODS AND COMPOSITIONS FOR TREATING CDKL5 DISORDER USING MONOAMINE OXIDASE INHIBITORS” (priority 2023, published 2025)
